Experimental data: patent US20210276960A1, “INHIBITORS OF TISSUE TRANSGLUTAMINASE 2 (TG2) AND USES THEREOF” (Northwestern University, priority 2020, published 2021)

Assays:
[1] = Pharmacokinetic assessment; format: in vivo, mice; details: for AUC0-∞ / Cl/F / cmax / t1/2 / tmax: 17.46 mg/Kg
From the text: Experiment 2: Pharmacokinetic (PK) assessment. PK studies using the highest safe dose will be conducted on lead compounds that were functionally validated and for which a single dose NOAEL could be established (Aim 3A). These will be carried out by the Sanford Burnham Pharmacology Core (see attached LOS). While ip dosing may not be the preferred route of administration for an eventual cancer drug, these studies using ip dosing will give us data on many PK parameters, including bioavailability, which will be useful in prioritizing and triaging optimized compounds for testing using other routes, e.g., oral. PK parameters will be determined including Cmax (maximum plasma concentration), Tmax (time point of maximum concentration), VdSS (volume of distribution at steady-state), ClE (elimination clearance), AUC (area under the curve) t, (elimination half-life), and oral bioavailability (% F) will be obtained (with the inclusion of an i.v. dosed cohort). […] Our goal will be to identify a compound that has a plasma AUC >5× its cell viability EC50, a t1-2>2 hrs, and low-to-moderate clearance. […] Toxicology and pathology measures will be performed only after anti-tumor activity of lead SMIs will be determined, if compounds are found worthy of detailed study (Expt #3). This approach will maximize use of animals and resources. In brief, peripheral blood counts will be obtained; selected organs and tissues (lung, heart, liver, kidney, colon, bone marrow) will be harvested. Bone marrow cellularity and colony formation assay will be determined.

SKOV3-GFP cells = test: In vivo cell attachment to the peritoneum; design: species or system mice; details: for unattached OC cells recovered from the peritoneal cavity: NSG mice, ip, 10 μg/kg, 2 hours after injection
[2] = test system: OVCAR5 cells adhesion to FN; test: Solid phase adhesion assay to FN, OVCAR5; format: cell-based, human; design: inhibition of adhesion to FN relative to TG53: dose or concentration left out as unconfirmed
Protocol: Cells labeled with calcein AM (Life Technologies, #L3224) were seeded at a density of 4×10^4 cells in 96-well plates pre-coated with FN (5 μg/mL, Sigma, #F1141), and blocked using 1% BSA (Sigma, #A9647) in PBS in the presence of selected compounds diluted at the specified concentrations, in serum free media. After 45 minutes, unattached cells were washed using PBS containing 1 mM MgCl2(Sigma, #M8266) and adherent cells were quantified in a SpectraMaxGeminiXS fluorescence plate reader (Molecular Devices, Palo Alto, Calif.) at 530 nm wavelength. Experiments were performed inquadruplicate and repeated at least twice.

TG2 = biological target: T1, TG2 (Cavia cutleri, UniProt P08587); test: Isothermal titration calorimetry (ITC); format: binding
T1 construct: purchased Sigma T5398
T1 sequence (P08587 whole entry): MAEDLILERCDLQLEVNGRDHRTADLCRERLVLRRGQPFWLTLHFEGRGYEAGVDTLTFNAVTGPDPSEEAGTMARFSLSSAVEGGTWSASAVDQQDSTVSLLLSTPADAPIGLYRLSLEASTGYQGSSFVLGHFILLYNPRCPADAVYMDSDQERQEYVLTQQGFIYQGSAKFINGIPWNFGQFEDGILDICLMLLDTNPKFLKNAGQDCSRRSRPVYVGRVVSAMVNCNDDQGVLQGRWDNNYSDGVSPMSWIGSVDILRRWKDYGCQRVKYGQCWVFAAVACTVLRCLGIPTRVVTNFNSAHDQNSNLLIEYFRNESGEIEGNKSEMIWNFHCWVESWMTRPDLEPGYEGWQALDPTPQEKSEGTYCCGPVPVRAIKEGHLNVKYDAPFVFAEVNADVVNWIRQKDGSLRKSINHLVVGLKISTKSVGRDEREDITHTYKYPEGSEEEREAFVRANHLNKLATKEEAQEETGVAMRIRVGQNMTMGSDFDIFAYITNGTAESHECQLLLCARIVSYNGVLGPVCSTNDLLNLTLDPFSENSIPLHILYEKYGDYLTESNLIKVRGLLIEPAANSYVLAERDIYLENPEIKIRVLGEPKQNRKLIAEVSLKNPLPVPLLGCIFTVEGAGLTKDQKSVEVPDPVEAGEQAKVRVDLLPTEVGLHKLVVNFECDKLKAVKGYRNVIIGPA
Protocol: The 45 kDa fibronectin fragment (FN45) corresponding to the TG2 binding region (Sigma, # F0162) was biotinylated using Biotin (Type A) Fast Conjugation Kit (Abcam, # ab201795). Biotinylated FN45 (10 μg/mL in PBS) was captured on pre-hydrated streptavidin-coated sensors (Pall Forte Bio SAX 18-5117). At each TG2 concentration, the binding kinetics were determined by following this sequence run: baseline (PBS for 30 s), association step (varying concentrations of TG2 in PBS for 120 s), and dissociation step (PBS for 120 s). A new FN45 biosensor was prepared for each run. To analyze the effect of the inhibitor MT4 on the interaction between TG2 and FN, a solution of 20 μg/mL of bio-FN45 was used for capturing FN45 on the streptavidin-coated sensors and the association step was 90 s. For each sensor, the capturing step was measured in real-time in order to assess the stability of the signal and the reproducibility between sensors. The saturation level Rmax was 0.6 (+0.08) for all sensors and no dissociation of the biotinylated FN45 was observed over 60 minutes. […] For the experiments with (TG2+MT4), controls were performed at each MT4 concentration and Rmax values were corrected for non-specific binding and any effects of DMSO on the TG2-FN45 interaction (these effects were below 8%). All BLI experiments were performed at 22° C. […]

OVCAR5 cells = test: Wound-healing assay, OVCAR5; format: cell-based, human; details: 8 μM, 24 hours
Protocol: Wound Healing was Performed in 12-Well Plates Coated with 1 μg/Ml FN (Sigma, #1141) overnight at 4° C. OC cells were plated at a density of 2×10^5 cells/well in media containing 2% FBS. Under these conditions cells adhered on substrate, but cell proliferation was minimized. After 16 hours, the cell monolayer was scraped in straight line. Cell debris was removed and serum free media containing selected SMIs or control was replenished. For consistency during image acquisition, a reference point was marked close to the scratch mark and the plate was imaged under phase-contrast microscope at 0, 2, 6, 12 and 24 hours. Wound closure was assessed as the distance between the wound edges, calculated and quantified using the Image Pro-Express software. The percentage of wound closure was evaluated using the formula […]. The rate of migration (μm/h) of OC cells into the wound space was evaluated as the distance difference between wound edges at 0 and 24 h, divided by 24. The experiments were performed in duplicates.

Protocol for Tolerability in vivo: Three doses were administered 25, 50 and 100 mg/kg to cohorts of 3 mice. A) Average weights, B) average white blood cell counts (WBC), C) average hemoglobin (Hgb) and D) average platelet (Plt) counts measured 1 week after administration at the 3 doses (n=3).

**Q.** For `COc1ccc(Cl)cc1C(=O)Nc1ccc(Nc2nc(C)cc(N(C)C)n2)cc1` [TG53], which “AUC0-∞” value ([1]; IV) is on record?
**A.** 2913 ng·h/mL

**Q.** And the Cl/F ([1]; IV)?
**A.** 0.12 L/h

**Q.** What about the cmax ([1]; IV) of the same compound?
**A.** 4045 ng/mL

**Q.** What about the t1/2 ([1]; IV) of the same compound?
**A.** 3.4 h

**Q.** What about the tmax ([1]; IV) of the same compound?
**A.** 0 h

**Q.** And the “AUC0-∞” value ([1]; i.p.)?
**A.** 1212 ng·h/mL

**Q.** And the Cl/F ([1]; i.p.)?
**A.** 0.29 L/h

**Q.** And the cmax ([1]; i.p.)?
**A.** 1313 ng/mL

**Q.** What about the t1/2 ([1]; i.p.) of the same compound?
**A.** 19.5 h

**Q.** What about the tmax ([1]; i.p.) of the same compound?
**A.** 0.5 h

**Q.** What about the t/2 ([1]; ip administration) of the same compound?
**A.** 19.5 h

**Q.** And the t/2 ([1]; iv administration)?
**A.** 3.4 h

**Q.** And the hematological toxicity (Tolerability in vivo; WBC, Hgb, Plt 1 week after administration)?
**A.** did not induce

**Q.** And the tolerated dose (Tolerability in vivo; doses 25, 50 and 100 mg/kg)?
**A.** up to 50 mg/kg

**Q.** Which “unattached OC cells recovered from the peritoneal cavity” value (SKOV3-GFP cells) does the source give for `Cc1cc(N(C)C)nc(Nc2ccc(NC(=O)Cc3ccccc3)cc2)n1` [MT-4] here?
**A.** attached less efficiently

**Q.** And the “unattached OC cells recovered from the peritoneal cavity” value (SKOV3-GFP cells; listed as MT4)?
**A.** Increased numbers

**Q.** What about the “adhesion of cancer cells to the peritoneum” value (SKOV3-GFP cells; nude mice, i.p., 2 hours) of the same compound?
**A.** prevented the adhesion

**Q.** What about the “inhibition of adhesion to FN relative to TG53” value [2] of the same compound?
**A.** more active than TG53

**Q.** What about the “cell adhesion to FN, dose dependence” value ([2]; 2 μM-25 μM) of the same compound?
**A.** dose-dependent inhibitory effect

**Q.** And the Kd (TG2)?
**A.** 5.1 µM

**Q.** What about the “change in enthalpy, ΔH” value (TG2; 160 μM MT4 titrated into 10 μM TG2, 25° C.) of the same compound?
**A.** -20.5 kcal/mol

**Q.** What about the “motility (scratch repair)” value (OVCAR5 cells) of the same compound?
**A.** inhibited
